Laboratory results: patent publication US8193235B2, “Compositions and methods for establishing and maintaining stem cells in an undifferentiated state” (University of Kansas, priority 2009, dated 2012)

How the values were obtained:
[1] = system: E14 ES cells; experiment: ES cell culture in the absence of LIF (undifferentiated state, marker expression); assay type: cell-based, mouse; conditions: mouse ES cells, without LIF
Method: (§1) E14 ES Cell Cultures. Cells were grown in ES-IMDM media (Lonza, Walkersville, Md.) in a feeder-free condition. ES-IMDM was supplemented with 15% serum, 10^5 U/100 ml of LIF (ESGRO, Millipore, Calif.) and 0.0124% monothioglycerol (MTG; Sigma Aldrich). Cells were grown for 3-5 days with change of medium every day. For inducing differentiation in monolayer culture and to determine the effect of Gö6983 in preventing differentiation, E14 cells were cultured on gelatin-coated plastics for 8 days without LIF. Details of experiments performed at clonal-density are described herein. To maintain E14 cells with Gö6983, serum supplemented ES-IMDM was used in the presence of 5 μM Gö6983 and was passed after every 3-5 days. For all assays involving elucidation of different signaling mechanism responsible for maintenance of pluripotency, cells from a ˜70% confluent ES culture plate were washed two times with 1× phosphate-buffered saline (PBS), trypsinized and plated on a 6-well tissue culture plate and treated with or without LIF or Gö6983 or different inhibitors for ˜10 hours followed by preparation of protein lysates and RNA. The PKCζ knocked-down E14 cells that were generated in this study were maintained in serum supplemented ES-IMDM on gelatin-coated plates in the absence of Gö6983 or LIF or any other inhibitor and passed after 3-5 days. For the experiments herein, cells were continuously cultured at least for 5 consecutive passages (>18 days) on gelatin-coated plates without significant differentiation.
Quantitative RT-PCR Analysis. RNA was extracted from different cell samples with TRIZOL reagent (Invitrogen). cDNA was prepared by annealing RNA (1 μg) with 250 ng of a 5:1 mixture of random and oligo(dT) primers heated at 68° C. for 10 minutes. This was followed by incubation with Moloney murine leukemia virus reverse transcriptase (50 units) (Invitrogen, Carlsbad, Calif.) combined with 10 mM DTT, RNasin (PROMEGA, Madison, Wis.), and 0.5 mM dNTPs at 42° C. for 1 hour. Reactions were diluted to a final volume of 100 μl and heat inactivated at 97° C. for 5 minutes. Twenty μl PCR reactions contained 2 μl cDNA, 10 μl SYBR Green Master Mix (Applied Biosystems, Foster City, Calif.) and corresponding primer sets. Relative expression levels were determined from a standard curve of serial dilutions of proliferating ES cell cDNA samples and were normalized to the expression of glyceraldehyde-3-phosphate dehydrogenase (GAPDH). At least three independent experiments were done for each set of data.
Immunostaining. Immunostaining of Oct4, and Nanog expression was performed using standard protocols. Briefly, ES cells were fixed in 4% paraformaldehyde/4% sucrose, permeabilized with 0.1% TRITON X 100 (Sigma). Cells were blocked by adding 1% fish gelatin (Sigma, St. Louis, Mo.) and incubated overnight at 4° C. with 200 μl of primary antibodies. Fluorescent-conjugated secondary antibodies (ALEXA FLUOR 488, and ALEXA FLUOR 568, Molecular Probes, Invitrogen) were used at 1:250 dilutions to visualize cells. Images were captured using a LEICA fluorescence microscope.

[2] = system: PKC β; parameters: key: X^1: PKC β1; X^2: PKC β2; conditions: X = isoform inhibited; superscript 1 PKC β1, 2 PKC β2; cited from earlier work
[3] = system: c-Myc; experiment: GSK-3β-mediated phosphorylation of c-Myc at T58; assay type: cell-based, mouse; conditions: added in Gö6983 culture condition
[4] = system: ERK1/2; experiment: ERK1/2 phosphorylation in ES cells; assay type: cell-based, mouse; conditions: combination of Gö6983 and PD0325901
Method: as §1, with “For the experiments herein, cells were continuously cultured at least for 5 consecutive passages (>18 days) on gelatin-coated plates without significant differentiation.” left out

[5] = system: p90Rsk1 (Rsk1); experiment: Phosphorylation of p90Rsk1; assay type: cell-based, mouse; conditions: added to Gö6983-treated cells
Method: Western Blot Analysis. Whole cell lysates were prepared in SDS-gel loading buffer and resolved by 10% PAGE. The antibodies used for this study included β-actin Clone AC-15 from Sigma; p-STAT3 (Tyr705), p-p44/42 MAPK (tyr202/tyr204), p44/42 MAPK, GSK3β, Phospho Akt (Ser473), Akt, p-NFκβ p65 (Ser536), c-Myc, p-c-Myc (Thr58/Ser62), p-p90RSK (Thr359/Ser363), RSK1, Suz12 (D39F6), and Ezh2 (AC22) from Cell Signaling Technology; STAT3 (C-20), Oct-4 (C-10), Nanog (M-149), PKC α (C-20), PKC βI (C-16), PKC βII (C-18), PKC γ (C-19), PKC δ (C-20), PKC ζ (c-20), p-PKC ζ (Thr 410)-R, p-NFκβ p65 (ser311), and RelA (p65) from Santa Cruz Biotechnology; p-LGL1/LGL2 (S650/S654), SSEA4and H3K4Me3 from Abcam; LGL2 (M06), clone 4G2 from Abnova; β-Catenin from BD Transduction Laboratories, and H3K27Me3 and H3K9Me3 from Millipore.

[6] = system: E14 ES cells; experiment: ES cell differentiation on collagen IV and with retinoic acid; assay type: cell-based, mouse; conditions: absence of LIF
Text: ES Cell Differentiation on Collagen-IV and With Retinoic Acid. To differentiate ES cells in monolayer culture on collagen IV, around 3×10^4 cells per well were transferred to collagen IV-coated 6-well plates (BD Biosciences, Franklin Lakes, N.J.) cultured for 5 days in ES differentiation medium containing DMEM (Invitrogen), 15% FBS (selected for endothelial differentiation, Stem Cell Technologies, Vancouver, BC), sodium pyruvate and L-glutamine with or without LIF and Gö6983, and were recovered by cell dissociation buffer (BD Biosciences, Franklin Lakes, N.J.). For culturing multiple passages with Gö6983 on collagen-IV, the recovered cells were again plated at a density of ˜3×10^4 cells per well and cultured again for 5 days. […] For RA-induced differentiation on monolayer culture, ES cells were treated with all-trans-retinoic acid (Sigma, St. Louis, Mo.) in ethanol at a concentration of 1 μM with or without LIF and Gö6983 for 6 days followed by study of expression of pluripotency markers (by immunofluorescence or western blot or RT-PCR analysis).

[7] = system: mESCs; experiment: Gö6983-mediated inhibition of mESC differentiation in presence of pathway inhibitors; assay type: cell-based, mouse; conditions: added to Gö6983 culture
Method: Inhibitors. Gö6983 was purchased from three different companies (Sigma, St. Louis, Mo.; EMD Chemicals Inc.; and Tocris Biosciences) for validation. In all experiments except the concentration profile, Gö6983 was used at 5 μM final concentration. […] Rottlerin (0.1-5 μM), and RO-318425 (0.1-5 μM) were purchased from EMD Chemicals. Jak Inhibitor I (10 μM), PD0325901 (1 μM) and AKT inhibitor IX (10 μM) were from Calbiochem and CHIR99021 (3 μM) was purchased from Stemgent.
E14 ES Cell Cultures. Cells were grown in ES-IMDM media (Lonza, Walkersville, Md.) in a feeder-free condition. ES-IMDM was supplemented with 15% serum, 10^5 U/100 ml of LIF (ESGRO, Millipore, Calif.) and 0.0124% monothioglycerol (MTG; Sigma Aldrich). Cells were grown for 3-5 days with change of medium every day. For inducing differentiation in monolayer culture and to determine the effect of Gö6983 in preventing differentiation, E14 cells were cultured on gelatin-coated plastics for 8 days without LIF. Details of experiments performed at clonal-density are described herein. To maintain E14 cells with Gö6983, serum supplemented ES-IMDM was used in the presence of 5 μM Gö6983 and was passed after every 3-5 days. […]

[8] = system: Akt; experiment: Akt phosphorylation in mESCs; assay type: cell-based, mouse
Method: as §1, with “For the experiments herein, cells were continuously cultured at least for 5 consecutive passages (>18 days) on gelatin-coated plates without significant differentiation.” left out

CN(C)CCCn1cc(C2=C(c3c[nH]c4ccccc34)C(=O)NC2=O)c2ccccc21 [Bisindolylmaleimide I]
ES cell differentiation in the absence of LIF [1]: able to inhibit ES cell differentiation, albeit at a lower efficiency than Gö6983 | Isoform Specificity β [2]: X^1

Cc1c[nH]c(-c2cnc(NCCNc3ccc(C#N)cn3)nc2-c2ccc(Cl)cc2Cl)n1 [CHIR99021]
c-Myc phosphorylation [3]: abolished

Cn1c2ccccc2c2c3c(c4c5ccccc5n(CCC#N)c4c21)CNC3=O [Gö6976]
ES cell differentiation in the absence of LIF [1]: could not prevent differentiation | Isoform Specificity β [2]: X^2

O=C(NOC[C@H](O)CO)c1ccc(F)c(F)c1Nc1ccc(I)cc1F [PD0325901]
ERK1/2 phosphorylation [4]: almost completely inhibited | Rsk1 phosphorylation [5]: abolished

Cn1cc(C2=C(c3c4n(c5ccccc35)CCC(CN)C4)C(=O)NC2=O)c2ccccc21 (stereo not drawn) [Ro-31-8425]
ES cell differentiation in the absence of LIF [1]: could not prevent differentiation

CC(=O)c1c(O)c(C)c(O)c(Cc2c(O)c3c(c(C(=O)/C=C/c4ccccc4)c2O)OC(C)(C)C=C3)c1O [Rottlerin]
ES cell differentiation in the absence of LIF [1]: could not prevent differentiation

N#CC(=C(/N)Sc1ccccc1N)/C(C#N)=C(/N)Sc1ccccc1N [U0216]
differentiation of ES cells on collagen IV [6]: failed to block differentiation

Jak-Inhibitor-I
effect of added inhibitor on Gö6983-mediated inhibition of mESC differentiation / maintenance of self-renewal [7]: ineffective

LIF: cytokine leukemia inhibitory factor, activates STAT3
Akt phosphorylation [8]: induced
